Data taken from patent US12105023B2, “Multi-well plate readers and methods of their use” (QUELLTX, INC., priority 2021, dated 2024).
Like-named read-outs stand apart in the source and are kept apart here.

Experiments:
Assay type in all cases: cell-based
[1] = tested on: IPSC-derived cardiomyocyte; test: Simultaneous voltage and calcium imaging in IPSC-derived cardiomyocytes; conditions: 10-test pulse blue stimulation protocol, 3 wells of each concentration, FIG. 41
Description: A 24 objective plate reader of the invention was used to assay a 96-well plate that contained IPSC-derived cardiomyocyte expressing jRGECO1a calcium sensors, CheRiff actuators, and loaded with BeRST1 fluorescent voltage sensitive dye.
The line labeled “stim” indicates pulses of stimulating light transmitted by the plate reader to multiple wells of the 96-well plate, which caused actuation of CheRiff. This led to resulting changes in voltage and calcium ion concentrations in the cells. The resulting changes in voltage were reported by BeRST1, which was energized by red light transmitted from the plate reader. Calcium ion concentration was reported by jRGECO1, which was energized by yellow light. Thus, the plate reader was able to accurately stimulate an actuator and two reporters in multiple wells of a multi-well plate with three separate wavelengths of light. Moreover, the plate reader was able to simultaneously detect the levels of two separate emission wavelengths of light.
The voltage and calcium fluorescence waveforms in FIG. 40 show the average epoch of the 10-test pulse blue stimulation protocol.
Increasing concentration of Nifedipine altered both the voltage action potential waveform and calcium transients until it was completely extinguished at 0.3 uM.

Nav1.8 = molecular target: T1, Nav1.8 (Homo sapiens, UniProt Q9Y5Y9); test: Nav1.8 spiking HEK assay (optogenetic, 6-test pulse stimulation protocol)
T1 construct: expressed in transfected cells; host or cells: HEK cells co-expressing CheRiff-GFP and Kir2.1, with BeRST dye as the voltage sensor

Nav1.7 = molecular target: T2, Nav1.7 (Homo sapiens, UniProt Q15858); test: Nav1.7 spiking HEK assay
T2 construct: expressed in transfected cells; host or cells: HEK cells co-expressing CheRiff, Kir2.1 (lentiviral transduction) and a voltage reporter
T2 sequence (Q15858 whole entry): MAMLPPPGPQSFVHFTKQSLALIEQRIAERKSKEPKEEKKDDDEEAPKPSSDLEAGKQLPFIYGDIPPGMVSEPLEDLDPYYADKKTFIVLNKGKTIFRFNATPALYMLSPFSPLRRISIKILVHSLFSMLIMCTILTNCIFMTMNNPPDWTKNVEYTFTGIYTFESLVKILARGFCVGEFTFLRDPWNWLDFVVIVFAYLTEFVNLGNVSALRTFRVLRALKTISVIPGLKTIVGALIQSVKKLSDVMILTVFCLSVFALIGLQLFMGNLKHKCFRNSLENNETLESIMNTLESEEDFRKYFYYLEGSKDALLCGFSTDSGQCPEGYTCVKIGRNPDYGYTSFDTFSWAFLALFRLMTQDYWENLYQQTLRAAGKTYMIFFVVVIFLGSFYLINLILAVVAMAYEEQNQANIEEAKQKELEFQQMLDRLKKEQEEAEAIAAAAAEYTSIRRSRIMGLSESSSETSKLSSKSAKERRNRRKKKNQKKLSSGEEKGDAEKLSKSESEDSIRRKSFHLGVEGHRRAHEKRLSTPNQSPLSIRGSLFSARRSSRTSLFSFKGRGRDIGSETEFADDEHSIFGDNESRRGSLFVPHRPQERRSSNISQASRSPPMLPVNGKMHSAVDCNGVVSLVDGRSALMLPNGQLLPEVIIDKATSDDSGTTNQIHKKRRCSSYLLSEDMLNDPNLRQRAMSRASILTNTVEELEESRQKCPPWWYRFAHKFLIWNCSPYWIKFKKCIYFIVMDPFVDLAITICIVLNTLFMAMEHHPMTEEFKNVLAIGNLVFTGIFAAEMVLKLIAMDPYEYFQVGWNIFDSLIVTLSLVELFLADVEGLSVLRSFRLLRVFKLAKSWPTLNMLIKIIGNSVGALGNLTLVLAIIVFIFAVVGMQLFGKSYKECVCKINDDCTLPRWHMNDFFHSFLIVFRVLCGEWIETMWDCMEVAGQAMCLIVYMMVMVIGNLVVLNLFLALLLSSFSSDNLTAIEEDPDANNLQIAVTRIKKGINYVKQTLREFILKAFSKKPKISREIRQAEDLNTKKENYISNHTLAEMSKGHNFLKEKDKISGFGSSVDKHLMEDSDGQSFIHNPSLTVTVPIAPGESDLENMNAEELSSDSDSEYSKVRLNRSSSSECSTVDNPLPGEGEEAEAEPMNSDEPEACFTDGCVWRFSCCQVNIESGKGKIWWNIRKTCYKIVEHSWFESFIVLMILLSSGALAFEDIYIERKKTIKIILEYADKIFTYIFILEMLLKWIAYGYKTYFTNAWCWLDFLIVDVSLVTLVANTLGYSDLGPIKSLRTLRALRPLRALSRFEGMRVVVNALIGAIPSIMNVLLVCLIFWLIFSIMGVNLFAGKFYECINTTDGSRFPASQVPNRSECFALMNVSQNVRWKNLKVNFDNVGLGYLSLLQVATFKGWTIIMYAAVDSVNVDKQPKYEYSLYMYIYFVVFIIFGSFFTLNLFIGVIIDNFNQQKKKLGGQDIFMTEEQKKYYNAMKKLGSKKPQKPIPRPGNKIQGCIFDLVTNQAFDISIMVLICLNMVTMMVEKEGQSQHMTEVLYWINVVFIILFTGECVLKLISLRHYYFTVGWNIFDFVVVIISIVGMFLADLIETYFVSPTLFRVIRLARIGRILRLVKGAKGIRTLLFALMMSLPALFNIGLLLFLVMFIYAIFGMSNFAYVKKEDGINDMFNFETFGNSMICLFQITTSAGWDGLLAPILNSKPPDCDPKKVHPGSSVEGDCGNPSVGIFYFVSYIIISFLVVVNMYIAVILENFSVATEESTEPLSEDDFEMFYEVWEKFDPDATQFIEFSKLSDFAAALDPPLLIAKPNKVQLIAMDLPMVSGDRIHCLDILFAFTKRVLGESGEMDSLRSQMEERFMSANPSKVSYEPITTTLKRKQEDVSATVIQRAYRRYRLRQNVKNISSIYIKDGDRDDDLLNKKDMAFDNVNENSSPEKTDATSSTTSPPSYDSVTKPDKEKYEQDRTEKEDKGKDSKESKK

T1 sequence (Q9Y5Y9 whole entry): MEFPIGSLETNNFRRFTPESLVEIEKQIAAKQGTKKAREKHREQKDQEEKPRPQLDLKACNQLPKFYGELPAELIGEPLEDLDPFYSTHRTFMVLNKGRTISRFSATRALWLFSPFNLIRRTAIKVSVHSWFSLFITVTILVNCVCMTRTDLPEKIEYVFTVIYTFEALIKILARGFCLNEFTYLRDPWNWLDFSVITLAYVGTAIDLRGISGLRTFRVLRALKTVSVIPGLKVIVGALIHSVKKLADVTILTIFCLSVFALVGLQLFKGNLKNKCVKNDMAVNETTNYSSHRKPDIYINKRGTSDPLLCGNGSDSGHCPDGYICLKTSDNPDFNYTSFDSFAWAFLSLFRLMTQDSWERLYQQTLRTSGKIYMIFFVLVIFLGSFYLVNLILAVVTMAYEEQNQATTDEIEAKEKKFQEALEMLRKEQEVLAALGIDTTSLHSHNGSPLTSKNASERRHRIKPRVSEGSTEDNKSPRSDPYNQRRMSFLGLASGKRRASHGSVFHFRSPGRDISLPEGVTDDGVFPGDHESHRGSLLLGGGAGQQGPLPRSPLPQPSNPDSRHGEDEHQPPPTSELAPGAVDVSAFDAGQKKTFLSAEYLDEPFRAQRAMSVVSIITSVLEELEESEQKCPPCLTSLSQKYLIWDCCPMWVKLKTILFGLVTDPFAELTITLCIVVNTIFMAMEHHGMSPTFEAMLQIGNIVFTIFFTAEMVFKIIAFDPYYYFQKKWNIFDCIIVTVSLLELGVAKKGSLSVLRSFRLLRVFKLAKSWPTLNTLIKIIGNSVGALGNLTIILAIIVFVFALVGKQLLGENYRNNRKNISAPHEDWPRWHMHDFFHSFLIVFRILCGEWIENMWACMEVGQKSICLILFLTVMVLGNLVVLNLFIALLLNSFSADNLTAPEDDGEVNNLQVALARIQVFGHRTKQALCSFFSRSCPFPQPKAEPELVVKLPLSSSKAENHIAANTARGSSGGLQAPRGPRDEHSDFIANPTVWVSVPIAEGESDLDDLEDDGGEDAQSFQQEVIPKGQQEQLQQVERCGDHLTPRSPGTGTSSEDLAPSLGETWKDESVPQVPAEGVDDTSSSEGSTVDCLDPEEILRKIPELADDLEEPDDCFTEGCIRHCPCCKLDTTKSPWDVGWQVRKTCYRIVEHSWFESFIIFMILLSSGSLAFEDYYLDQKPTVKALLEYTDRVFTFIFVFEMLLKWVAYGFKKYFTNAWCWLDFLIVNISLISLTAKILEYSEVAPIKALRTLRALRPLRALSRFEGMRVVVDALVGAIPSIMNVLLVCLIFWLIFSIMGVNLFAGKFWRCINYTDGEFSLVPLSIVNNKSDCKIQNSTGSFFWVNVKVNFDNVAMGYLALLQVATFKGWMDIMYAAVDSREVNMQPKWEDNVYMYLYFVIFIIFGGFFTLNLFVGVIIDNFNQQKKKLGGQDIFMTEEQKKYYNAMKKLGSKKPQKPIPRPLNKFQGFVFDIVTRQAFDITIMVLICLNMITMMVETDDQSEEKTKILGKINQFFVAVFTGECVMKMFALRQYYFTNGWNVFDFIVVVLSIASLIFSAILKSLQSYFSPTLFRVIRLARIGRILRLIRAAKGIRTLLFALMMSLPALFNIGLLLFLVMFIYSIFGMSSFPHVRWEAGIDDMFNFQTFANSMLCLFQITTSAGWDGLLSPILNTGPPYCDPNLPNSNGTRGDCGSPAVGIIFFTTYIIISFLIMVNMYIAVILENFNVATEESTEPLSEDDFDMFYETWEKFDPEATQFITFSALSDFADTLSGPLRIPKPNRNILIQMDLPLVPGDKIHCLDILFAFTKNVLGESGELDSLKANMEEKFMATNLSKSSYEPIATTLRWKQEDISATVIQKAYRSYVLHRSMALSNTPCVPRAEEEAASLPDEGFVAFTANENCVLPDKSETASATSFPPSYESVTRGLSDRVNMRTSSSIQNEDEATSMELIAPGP

COC(=O)C1=C(C)NC(C)=C(C(=O)OC)C1c1ccccc1[N+](=O)[O-] [Nifedipine]
concentration at which voltage action potential waveform and calcium transients were completely extinguished [1]: 0.3 µM

CNC(=O)c1ccc(-c2cc(Cl)cc(Cl)c2Cl)c(N)n1 [PF-01247324]
IC50 (Nav1.8; Nav1.8 spiking HEK assay, dose response curves, FIG. 43D, read-out: IC50, block of Nav1.8): 130 nM
selectivity against Nav1.7 (Nav1.8; Nav1.8 versus Nav1.7 spiking HEK assays, FIG. 43D): 40 fold
test pulse preference of block (TP1 versus TP5) (Nav1.8; dose response curves at TP5 and TP1, FIG. 43C): preferentially blocks TP5
test pulse at which blocker is more effective (slope of repolarization) (Nav1.8; representative traces, 6-test pulse protocol, FIG. 43B): more effective after the long pulse (TP5)

NC1=N[C@H](O)[C@H]2[C@H]3O[C@]4(O)O[C@@H]([C@@H](O)[C@@]2(N1)[C@@H]4O)[C@]3(O)CO [TTX, Tetrodotoxin]
selectivity for Nav1.7 (Nav1.7): more than 1,000 fold
test pulse preference of block (TP1 versus TP5) (Nav1.8): equivalently blocks TP1 and TP5
